The source made the active and inactive calls.
Key:
Type in all cases: functional
[1] = target: T1, Apoptotic protease-activating factor 1 (Homo sapiens, UniProt O14727)
T1 sequence (O14727 whole entry): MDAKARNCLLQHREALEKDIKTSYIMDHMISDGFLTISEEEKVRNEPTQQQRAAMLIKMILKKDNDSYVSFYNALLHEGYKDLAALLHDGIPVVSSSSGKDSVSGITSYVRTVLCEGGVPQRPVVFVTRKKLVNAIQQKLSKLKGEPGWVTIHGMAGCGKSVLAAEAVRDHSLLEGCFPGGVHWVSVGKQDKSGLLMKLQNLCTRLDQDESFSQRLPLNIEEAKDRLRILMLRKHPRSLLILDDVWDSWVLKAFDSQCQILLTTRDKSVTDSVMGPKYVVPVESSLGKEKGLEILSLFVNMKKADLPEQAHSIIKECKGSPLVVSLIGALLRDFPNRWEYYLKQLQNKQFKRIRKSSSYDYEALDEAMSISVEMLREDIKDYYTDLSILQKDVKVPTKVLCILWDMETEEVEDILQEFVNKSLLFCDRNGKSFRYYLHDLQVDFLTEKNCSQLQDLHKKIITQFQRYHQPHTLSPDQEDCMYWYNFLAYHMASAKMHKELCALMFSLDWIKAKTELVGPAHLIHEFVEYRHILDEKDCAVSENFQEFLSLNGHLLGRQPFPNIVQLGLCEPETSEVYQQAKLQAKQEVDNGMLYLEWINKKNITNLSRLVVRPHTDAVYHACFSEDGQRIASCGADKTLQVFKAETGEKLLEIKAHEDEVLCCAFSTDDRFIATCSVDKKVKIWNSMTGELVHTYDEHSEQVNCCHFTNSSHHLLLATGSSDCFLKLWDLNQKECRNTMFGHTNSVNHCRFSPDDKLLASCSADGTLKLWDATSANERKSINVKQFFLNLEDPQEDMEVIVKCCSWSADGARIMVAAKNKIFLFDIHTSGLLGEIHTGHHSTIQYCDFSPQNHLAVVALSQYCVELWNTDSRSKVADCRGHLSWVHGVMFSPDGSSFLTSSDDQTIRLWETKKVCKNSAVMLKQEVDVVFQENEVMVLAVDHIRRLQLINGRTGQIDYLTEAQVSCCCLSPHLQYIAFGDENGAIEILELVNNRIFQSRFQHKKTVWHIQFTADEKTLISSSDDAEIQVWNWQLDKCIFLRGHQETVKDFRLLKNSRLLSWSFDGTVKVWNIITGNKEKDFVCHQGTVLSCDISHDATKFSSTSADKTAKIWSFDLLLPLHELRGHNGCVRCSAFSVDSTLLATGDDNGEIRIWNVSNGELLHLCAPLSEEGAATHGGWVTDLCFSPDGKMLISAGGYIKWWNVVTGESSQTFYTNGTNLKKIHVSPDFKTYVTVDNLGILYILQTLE

[2] = target: Ribosomal protein S6 kinase alpha-3 (Homo sapiens, UniProt P51812);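 note: measured within a kinome-wide profiling panel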
[3] = target: Dual specificity protein kinase CLK2 (Homo sapiens, UniProt P49760)
[4] = target: Dual specificity mitogen-activated protein kinase kinase 1 (Homo sapiens, UniProt Q02750); assay: Navigating the Kinome. Panel member name: MAP2K1
[5] = target: Serine/threonine-protein kinase TBK1 (Homo sapiens, UniProt Q9UHD2); assay: Navigating the Kinome. Panel member name: TBK1
[6] = target: 5'-AMP-activated protein kinase catalytic subunit alpha-1 (Homo sapiens, UniProt Q13131)
[7] = target: Tyrosine-protein kinase BTK (Homo sapiens, UniProt Q06187)
[8] = target: Serine/threonine-protein kinase TAO1 (Homo sapiens, UniProt Q7L7X3)
[9] = target: Receptor-type tyrosine-protein kinase FLT3 (Homo sapiens, UniProt P36888);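 note: FLT3 was tested as one member of a kinome-wide kinase panel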
[10] = target: Vascular endothelial growth factor receptor 2 (Homo sapiens, UniProt P35968)
[11] = target: Leucine-rich repeat serine/threonine-protein kinase 2 (Homo sapiens, UniProt Q5S007);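 note: value from a broad kinome-wide panel profiling study in which LRRK2 was one of the kinases tested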
[12] = target: Cyclin-dependent kinase 9 (Homo sapiens, UniProt P50750);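 note: value from the CDK9 entry of a kinome-spanning kinase panel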
[13] = target: Macrophage-stimulating protein receptor (Homo sapiens, UniProt Q04912); assay: Navigating the Kinome. Panel member name: MST1R
[14] = target: Calcium/calmodulin-dependent protein kinase type II subunit alpha (Homo sapiens, UniProt Q9UQM7); assay: Navigating the Kinome. Panel member name: CAMK2A
[15] = target: T2, Sentrin-specific protease 7 (Homo sapiens, UniProt Q9BQF6);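 note: Luminescence-based dose-response confirmation of ultra-high-throughput screening hits, measuring inhibition of SENP7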
T2 sequence (Q9BQF6 whole entry): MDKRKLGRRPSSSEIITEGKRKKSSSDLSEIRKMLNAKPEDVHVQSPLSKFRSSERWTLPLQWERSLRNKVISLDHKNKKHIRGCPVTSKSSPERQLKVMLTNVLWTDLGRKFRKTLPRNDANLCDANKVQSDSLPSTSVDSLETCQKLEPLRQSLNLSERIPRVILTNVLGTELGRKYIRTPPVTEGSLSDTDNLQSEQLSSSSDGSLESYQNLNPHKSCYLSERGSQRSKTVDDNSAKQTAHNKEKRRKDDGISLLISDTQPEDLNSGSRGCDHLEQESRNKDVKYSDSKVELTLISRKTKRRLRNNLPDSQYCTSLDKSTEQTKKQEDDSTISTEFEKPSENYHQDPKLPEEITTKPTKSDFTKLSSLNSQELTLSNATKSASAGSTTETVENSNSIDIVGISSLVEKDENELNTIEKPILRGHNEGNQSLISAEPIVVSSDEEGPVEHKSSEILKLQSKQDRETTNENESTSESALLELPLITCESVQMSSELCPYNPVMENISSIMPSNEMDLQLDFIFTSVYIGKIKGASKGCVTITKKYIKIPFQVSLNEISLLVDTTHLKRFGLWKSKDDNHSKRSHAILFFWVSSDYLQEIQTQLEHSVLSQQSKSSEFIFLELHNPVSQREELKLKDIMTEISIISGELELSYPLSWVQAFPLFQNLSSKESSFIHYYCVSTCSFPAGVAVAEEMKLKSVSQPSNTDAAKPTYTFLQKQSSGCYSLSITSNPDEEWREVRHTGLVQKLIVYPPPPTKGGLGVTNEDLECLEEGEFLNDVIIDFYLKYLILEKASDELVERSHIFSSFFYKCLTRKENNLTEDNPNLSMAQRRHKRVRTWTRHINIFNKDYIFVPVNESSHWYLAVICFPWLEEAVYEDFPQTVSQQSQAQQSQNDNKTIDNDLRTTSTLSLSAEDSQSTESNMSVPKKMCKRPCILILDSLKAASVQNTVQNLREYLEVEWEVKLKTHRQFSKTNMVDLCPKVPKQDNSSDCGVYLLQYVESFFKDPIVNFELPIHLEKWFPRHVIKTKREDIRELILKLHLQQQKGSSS

Chain of Calcium/calmodulin-dependent protein kinase type II subunit alpha (Q9UQM7 whole entry): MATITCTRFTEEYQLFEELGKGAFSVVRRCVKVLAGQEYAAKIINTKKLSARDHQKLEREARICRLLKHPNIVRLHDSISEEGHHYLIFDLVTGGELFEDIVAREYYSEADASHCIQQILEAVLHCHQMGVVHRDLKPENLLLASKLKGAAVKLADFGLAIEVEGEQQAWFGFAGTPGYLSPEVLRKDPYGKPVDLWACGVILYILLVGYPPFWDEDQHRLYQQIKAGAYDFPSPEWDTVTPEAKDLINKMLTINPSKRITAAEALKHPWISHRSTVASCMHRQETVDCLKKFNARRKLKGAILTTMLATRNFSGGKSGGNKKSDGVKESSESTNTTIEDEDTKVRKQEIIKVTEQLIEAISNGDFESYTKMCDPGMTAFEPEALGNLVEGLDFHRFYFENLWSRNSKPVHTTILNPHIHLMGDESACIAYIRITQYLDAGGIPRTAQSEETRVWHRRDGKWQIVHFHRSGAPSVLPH
Chain of Dual specificity mitogen-activated protein kinase kinase 1 (Q02750 whole entry): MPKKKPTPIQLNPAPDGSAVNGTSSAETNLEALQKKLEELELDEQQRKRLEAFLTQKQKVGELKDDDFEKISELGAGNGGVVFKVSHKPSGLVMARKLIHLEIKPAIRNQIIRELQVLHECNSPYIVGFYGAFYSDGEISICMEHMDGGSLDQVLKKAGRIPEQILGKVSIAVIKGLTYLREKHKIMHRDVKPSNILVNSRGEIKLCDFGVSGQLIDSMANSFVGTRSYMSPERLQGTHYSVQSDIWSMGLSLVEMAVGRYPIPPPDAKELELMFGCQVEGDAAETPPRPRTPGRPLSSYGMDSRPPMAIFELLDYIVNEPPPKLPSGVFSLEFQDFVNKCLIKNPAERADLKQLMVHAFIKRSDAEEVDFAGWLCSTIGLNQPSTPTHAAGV
Chain of Dual specificity protein kinase CLK2 (P49760 whole entry): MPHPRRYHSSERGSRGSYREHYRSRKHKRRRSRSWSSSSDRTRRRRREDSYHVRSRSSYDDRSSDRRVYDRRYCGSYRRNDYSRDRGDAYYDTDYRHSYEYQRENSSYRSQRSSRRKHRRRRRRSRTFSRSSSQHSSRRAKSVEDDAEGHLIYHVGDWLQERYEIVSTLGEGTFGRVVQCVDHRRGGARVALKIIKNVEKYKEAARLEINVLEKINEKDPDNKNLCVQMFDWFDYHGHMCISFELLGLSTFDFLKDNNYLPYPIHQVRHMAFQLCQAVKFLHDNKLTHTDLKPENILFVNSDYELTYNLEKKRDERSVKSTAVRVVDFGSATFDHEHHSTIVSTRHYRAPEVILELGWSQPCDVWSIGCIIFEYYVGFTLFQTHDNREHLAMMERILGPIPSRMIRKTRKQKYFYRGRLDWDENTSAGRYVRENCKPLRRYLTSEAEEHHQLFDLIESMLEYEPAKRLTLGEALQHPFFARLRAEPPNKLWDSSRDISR
Chain of Vascular endothelial growth factor receptor 2 (P35968 whole entry): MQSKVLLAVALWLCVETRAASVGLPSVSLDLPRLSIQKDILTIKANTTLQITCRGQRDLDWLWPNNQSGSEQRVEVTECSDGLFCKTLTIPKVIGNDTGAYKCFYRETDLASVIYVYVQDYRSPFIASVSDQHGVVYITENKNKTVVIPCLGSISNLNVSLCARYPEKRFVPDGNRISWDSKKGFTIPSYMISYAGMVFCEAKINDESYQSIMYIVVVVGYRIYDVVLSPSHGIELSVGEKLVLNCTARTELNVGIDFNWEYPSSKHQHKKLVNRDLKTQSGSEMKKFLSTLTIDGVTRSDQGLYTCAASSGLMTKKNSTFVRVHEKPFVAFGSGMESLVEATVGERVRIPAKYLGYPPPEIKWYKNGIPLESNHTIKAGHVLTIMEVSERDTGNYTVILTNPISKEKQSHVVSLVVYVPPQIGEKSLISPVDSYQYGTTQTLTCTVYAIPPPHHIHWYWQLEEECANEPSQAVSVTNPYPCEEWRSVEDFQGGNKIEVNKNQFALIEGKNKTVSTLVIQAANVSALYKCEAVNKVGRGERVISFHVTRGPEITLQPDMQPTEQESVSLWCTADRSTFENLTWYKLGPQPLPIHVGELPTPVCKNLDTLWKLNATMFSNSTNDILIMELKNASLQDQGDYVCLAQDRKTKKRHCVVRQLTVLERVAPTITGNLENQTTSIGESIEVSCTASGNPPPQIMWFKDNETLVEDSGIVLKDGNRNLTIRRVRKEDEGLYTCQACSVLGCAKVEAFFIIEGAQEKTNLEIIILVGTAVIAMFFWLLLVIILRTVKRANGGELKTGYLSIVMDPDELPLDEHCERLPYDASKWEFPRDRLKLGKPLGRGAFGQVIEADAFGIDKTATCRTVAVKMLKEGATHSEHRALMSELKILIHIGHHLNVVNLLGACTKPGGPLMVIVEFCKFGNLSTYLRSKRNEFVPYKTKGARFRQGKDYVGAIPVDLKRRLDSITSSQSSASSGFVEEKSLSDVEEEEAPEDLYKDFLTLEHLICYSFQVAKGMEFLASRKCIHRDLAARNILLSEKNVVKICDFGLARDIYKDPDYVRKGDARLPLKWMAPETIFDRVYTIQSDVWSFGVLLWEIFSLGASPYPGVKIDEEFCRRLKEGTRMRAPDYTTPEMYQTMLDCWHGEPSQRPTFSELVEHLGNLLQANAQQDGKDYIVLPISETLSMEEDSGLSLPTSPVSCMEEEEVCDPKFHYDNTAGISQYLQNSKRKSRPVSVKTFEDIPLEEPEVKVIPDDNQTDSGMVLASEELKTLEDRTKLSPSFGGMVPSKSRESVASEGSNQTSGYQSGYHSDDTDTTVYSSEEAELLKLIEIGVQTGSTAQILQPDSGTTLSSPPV
Chain of Serine/threonine-protein kinase TBK1 (Q9UHD2 whole entry): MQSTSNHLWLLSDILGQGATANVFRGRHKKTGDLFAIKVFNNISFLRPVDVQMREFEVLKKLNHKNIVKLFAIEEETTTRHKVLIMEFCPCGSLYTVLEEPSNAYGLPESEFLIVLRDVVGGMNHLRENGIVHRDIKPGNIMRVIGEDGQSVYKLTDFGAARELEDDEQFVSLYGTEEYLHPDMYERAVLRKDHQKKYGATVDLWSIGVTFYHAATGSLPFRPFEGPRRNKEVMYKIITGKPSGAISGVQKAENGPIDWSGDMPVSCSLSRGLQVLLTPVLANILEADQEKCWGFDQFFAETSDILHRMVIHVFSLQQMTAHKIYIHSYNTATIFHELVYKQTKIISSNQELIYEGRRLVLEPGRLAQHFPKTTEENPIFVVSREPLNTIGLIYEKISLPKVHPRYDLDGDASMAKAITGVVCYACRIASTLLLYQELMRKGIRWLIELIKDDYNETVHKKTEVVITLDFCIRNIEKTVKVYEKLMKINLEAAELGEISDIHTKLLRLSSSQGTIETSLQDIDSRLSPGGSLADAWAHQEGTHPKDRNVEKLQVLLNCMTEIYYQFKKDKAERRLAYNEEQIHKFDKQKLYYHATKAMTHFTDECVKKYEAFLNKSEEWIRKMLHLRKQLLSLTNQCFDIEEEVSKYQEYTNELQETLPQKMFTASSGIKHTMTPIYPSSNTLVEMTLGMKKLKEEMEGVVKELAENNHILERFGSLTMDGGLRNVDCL
Chain of Macrophage-stimulating protein receptor (Q04912 25-304 limits assumed): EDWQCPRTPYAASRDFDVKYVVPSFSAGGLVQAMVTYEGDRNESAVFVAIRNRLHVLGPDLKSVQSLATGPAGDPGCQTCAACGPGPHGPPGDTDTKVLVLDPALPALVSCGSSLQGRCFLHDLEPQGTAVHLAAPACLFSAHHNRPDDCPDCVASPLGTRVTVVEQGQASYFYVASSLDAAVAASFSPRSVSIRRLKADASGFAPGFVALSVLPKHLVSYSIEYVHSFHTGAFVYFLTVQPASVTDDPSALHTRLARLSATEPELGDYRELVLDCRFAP
Chain of Macrophage-stimulating protein receptor (Q04912 310-1400 limits assumed): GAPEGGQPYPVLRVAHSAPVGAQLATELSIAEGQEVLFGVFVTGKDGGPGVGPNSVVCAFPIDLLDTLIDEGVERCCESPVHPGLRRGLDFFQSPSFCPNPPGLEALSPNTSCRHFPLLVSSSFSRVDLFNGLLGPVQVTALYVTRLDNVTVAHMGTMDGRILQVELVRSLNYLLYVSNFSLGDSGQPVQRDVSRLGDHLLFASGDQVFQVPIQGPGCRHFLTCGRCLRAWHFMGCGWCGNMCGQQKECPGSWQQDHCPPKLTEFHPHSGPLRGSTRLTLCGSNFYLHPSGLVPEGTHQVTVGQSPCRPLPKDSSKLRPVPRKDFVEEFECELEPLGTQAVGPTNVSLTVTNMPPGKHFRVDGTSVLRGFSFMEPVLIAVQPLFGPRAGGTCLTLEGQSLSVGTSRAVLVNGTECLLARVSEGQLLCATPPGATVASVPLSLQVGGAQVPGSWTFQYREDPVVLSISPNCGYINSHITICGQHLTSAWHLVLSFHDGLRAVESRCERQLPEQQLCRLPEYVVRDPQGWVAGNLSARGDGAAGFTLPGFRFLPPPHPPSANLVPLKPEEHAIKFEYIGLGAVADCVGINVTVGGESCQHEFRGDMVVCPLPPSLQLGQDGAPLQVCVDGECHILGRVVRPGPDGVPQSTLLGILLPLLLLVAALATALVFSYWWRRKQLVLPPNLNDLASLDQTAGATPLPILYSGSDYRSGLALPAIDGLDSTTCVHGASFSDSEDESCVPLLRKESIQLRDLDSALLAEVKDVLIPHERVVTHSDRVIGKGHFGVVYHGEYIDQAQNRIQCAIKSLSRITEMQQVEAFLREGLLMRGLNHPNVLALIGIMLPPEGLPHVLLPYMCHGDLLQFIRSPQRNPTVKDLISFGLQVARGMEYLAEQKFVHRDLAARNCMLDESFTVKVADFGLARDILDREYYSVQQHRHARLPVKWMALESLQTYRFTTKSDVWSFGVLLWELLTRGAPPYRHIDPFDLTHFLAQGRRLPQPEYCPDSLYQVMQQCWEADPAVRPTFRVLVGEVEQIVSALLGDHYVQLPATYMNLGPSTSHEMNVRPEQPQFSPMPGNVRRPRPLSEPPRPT

Ki [2]	Ki [3]	Ki [4]	Ki [5]	Ki [6]	Ki [7]	Ki [8]	Ki [9]	Ki [10]	Ki [11]	Ki [12]	Ki [13]	Ki [14]	Compound	IC50 [1]	IC50 [15]
> 3.98 µM (inactive)	> 3.16 µM (inactive)	> 3.16 µM (inactive)	> 3.16 µM (inactive)	> 3.16 µM (inactive)	> 6.31 µM (inactive)	> 6.31 µM (inactive)	> 2.51 µM (inactive)	> 2.51 µM (inactive)	> 2.51 µM (inactive)	> 1.58 µM (inactive)	> 3.98 µM (inactive)	> 7.94 µM (inactive)	O=C(Nc1cc(-c2c[nH]c3ncccc23)cc(Cl)n1)c1ccccc1	–	–
> 3.98 µM (inactive)	> 3.98 µM (inactive)	> 3.16 µM (inactive)	> 3.16 µM (inactive)	> 3.16 µM (inactive)	0.316 µM (active)	> 6.31 µM (inactive)	0.0501 µM (active)	0.0126 µM (active)	> 2.51 µM (inactive)	> 1.58 µM (inactive)	> 3.98 µM (inactive)	> 3.98 µM (inactive)	Nc1c(-c2ccc(NC(=O)Nc3cccc(C(F)(F)F)c3)cc2)cnc2c(-c3ccc4c(c3)OCO4)cnn12	–	–

Continued, molecule first:

Compound	Ki [2]	Ki [3]	Ki [4]	Ki [5]	Ki [6]	Ki [7]	Ki [8]	Ki [9]	Ki [10]	Ki [11]	Ki [12]	Ki [13]	Ki [14]	IC50 [1]	IC50 [15]
O=C(Cc1ccccc1Cl)NC1(O)C(=O)c2ccccc2C1=O	–	–	–	–	–	–	–	–	–	–	–	–	–	12 µM (active)	–
Nc1nnc2c(n1)CCCC2	–	–	–	–	–	–	–	–	–	–	–	–	–	7.19 µM (active)	10.2 µM (active)
O=C(N/N=C/c1c(O)ccc2ccccc12)c1[nH]ncc1Br	–	–	–	–	–	–	–	–	–	–	–	–	–	–	7.19 µM (active)

Reference: ChEMBL document CHEMBL1201862, “PubChem BioAssay data set” (2004)
